Measured values from PubChem BioAssay (NCI).
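These data come from cells grown in 96-well plates and exposed to compound for 48 hours at five concentrations. Definition used: TGI = concentration required for complete inhibition of growth.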

Legend:
Experiment in all cases: inhibition of tumour cell growth, NCI panel, 48 h
[1] = tested on: MDA-MB-231 breast
[2] = tested on: A498 renal
[3] = tested on: HOP-62 NSCLC
[4] = tested on: BT-549 breast
[5] = tested on: SF-295 CNS
[6] = tested on: MOLT-4 leukemia
[7] = tested on: SK-MEL-28 melanoma
[8] = tested on: KM12 colon
[9] = tested on: SW-620 colon
[10] = tested on: 786-0 renal
[11] = tested on: SNB-19 CNS
[12] = tested on: M14 melanoma
[13] = tested on: NCI-H522 lung
[14] = tested on: SNB-75 CNS
[15] = tested on: SF-268 CNS
[16] = tested on: HCC-2998 colon
[17] = tested on: OVCAR-5 ovarian
[18] = tested on: SR leukemia
[19] = tested on: HOP-92 NSCLC
[20] = tested on: NCI-H460 lung

N#CC(C#N)=C1c2ccccc2C(=NN)c2ccccc21
TGI [1]: > 100 µM | TGI [2]: > 100 µM | TGI [3]: > 100 µM | TGI [4]: > 100 µM | TGI [5]: > 100 µM | TGI [6]: > 100 µM | TGI [7]: > 100 µM | TGI [8]: > 100 µM | TGI [9]: > 100 µM | TGI [10]: > 100 µM | TGI [11]: > 100 µM | TGI [12]: > 100 µM | TGI [13]: > 100 µM | TGI [14]: > 100 µM | TGI [15]: > 100 µM | TGI [16]: > 100 µM | TGI [17]: > 100 µM | TGI [18]: > 100 µM | TGI [19]: > 100 µM

COc1cc(C=O)cc(/C=N/n2c3ccccc3c3ccccc32)c1O
TGI [1]: > 100 µM | TGI [2]: 48.7 µM | TGI [3]: > 100 µM | TGI [4]: 9.7 µM | TGI [5]: 18.6 µM | TGI [6]: 76.8 µM | TGI [7]: > 100 µM | TGI [8]: > 100 µM | TGI [9]: > 100 µM | TGI [10]: > 100 µM | TGI [11]: > 100 µM | TGI [12]: > 100 µM | TGI [13]: 73.2 µM | TGI [14]: 15.7 µM | TGI [20]: > 100 µM | TGI [15]: > 100 µM | TGI [16]: 67.4 µM | TGI [17]: > 100 µM | TGI [18]: > 100 µM | TGI [19]: 9.58 µM

COc1ccc(CCCCl)c(C2=NCCc3cc(OC)c(OC)cc32)c1
TGI [1]: > 100 µM | TGI [2]: > 100 µM | TGI [3]: > 100 µM | TGI [4]: > 100 µM | TGI [5]: > 100 µM | TGI [6]: > 100 µM | TGI [7]: > 100 µM | TGI [8]: > 100 µM | TGI [9]: > 100 µM | TGI [10]: > 100 µM | TGI [11]: > 100 µM | TGI [12]: > 100 µM | TGI [13]: > 100 µM | TGI [14]: > 100 µM | TGI [20]: > 100 µM | TGI [15]: > 100 µM | TGI [16]: > 100 µM | TGI [17]: > 100 µM | TGI [18]: > 100 µM | TGI [19]: > 100 µM

COC(=O)C(Cc1ccccc1)NP(=O)(O)OCC1OC(n2cc(Br)c(=O)[nH]c2=O)CC1O (stereo not given)
TGI [1]: > 100 µM | TGI [2]: > 100 µM | TGI [3]: > 100 µM | TGI [4]: > 100 µM | TGI [5]: > 100 µM | TGI [6]: > 100 µM | TGI [7]: > 100 µM | TGI [8]: > 100 µM | TGI [9]: > 100 µM | TGI [10]: > 100 µM | TGI [11]: > 100 µM | TGI [12]: > 100 µM | TGI [13]: > 100 µM | TGI [14]: > 100 µM | TGI [20]: > 100 µM | TGI [15]: > 100 µM | TGI [16]: > 100 µM | TGI [17]: > 100 µM | TGI [18]: > 100 µM | TGI [19]: > 100 µM

CN1CCc2c3n(c4cc(Br)ccc24)[C@H](O)CCCC31 (stereo not given in full)
TGI [1]: 4.38 µM | TGI [2]: > 10 µM | TGI [3]: > 10 µM | TGI [4]: > 10 µM | TGI [5]: 3.53 µM | TGI [6]: 3.97 µM | TGI [7]: 3.19 µM | TGI [8]: 5.32 µM | TGI [9]: 3.47 µM | TGI [10]: 3.08 µM | TGI [11]: > 10 µM | TGI [12]: 3.24 µM | TGI [13]: 3.01 µM | TGI [14]: 5.83 µM | TGI [20]: 2.97 µM | TGI [15]: > 10 µM | TGI [16]: 3.16 µM | TGI [17]: > 10 µM | TGI [18]: 4.05 µM | TGI [19]: > 9.12 µM

C/C(=C(/C)c1ccc(O)cc1)c1ccc(O)cc1
TGI [1]: > 100 µM | TGI [2]: > 100 µM | TGI [3]: > 100 µM | TGI [4]: > 100 µM | TGI [6]: > 100 µM | TGI [8]: > 100 µM | TGI [9]: > 100 µM | TGI [10]: > 100 µM | TGI [11]: > 100 µM | TGI [12]: > 100 µM | TGI [13]: > 100 µM | TGI [14]: > 100 µM | TGI [20]: > 100 µM | TGI [15]: > 100 µM | TGI [16]: > 100 µM | TGI [17]: > 100 µM | TGI [18]: 83.8 µM | TGI [19]: 91.6 µM

CN(C)CCCNC(=O)c1c(O)c2ccccc2[nH]c1=O
TGI [1]: > 100 µM | TGI [2]: > 100 µM | TGI [3]: > 100 µM | TGI [4]: > 100 µM | TGI [5]: > 100 µM | TGI [6]: > 100 µM | TGI [7]: > 100 µM | TGI [8]: > 100 µM | TGI [9]: > 100 µM | TGI [10]: > 100 µM | TGI [13]: > 100 µM | TGI [14]: > 100 µM | TGI [20]: > 100 µM | TGI [15]: > 100 µM | TGI [16]: > 100 µM | TGI [17]: > 100 µM | TGI [18]: > 100 µM | TGI [19]: > 100 µM

Cc1ccc(C2=Nn3c(nc4sc(C)c(C)c4c3=O)SC2)cc1
TGI [1]: > 100 µM | TGI [2]: > 100 µM | TGI [3]: > 100 µM | TGI [4]: > 100 µM | TGI [5]: > 100 µM | TGI [6]: > 100 µM | TGI [7]: > 100 µM | TGI [8]: > 100 µM | TGI [9]: > 100 µM | TGI [10]: > 100 µM | TGI [13]: > 100 µM | TGI [14]: > 100 µM | TGI [20]: > 100 µM | TGI [15]: > 100 µM | TGI [16]: > 100 µM | TGI [17]: > 100 µM | TGI [18]: > 100 µM | TGI [19]: > 100 µM

N=C(N)C1CN(CCCCCCCCCCN2CC(C(=N)N)C(=O)NC2=O)C(=O)NC1=O (stereo not given)
TGI [1]: > 10 µM | TGI [2]: > 10 µM | TGI [3]: > 10 µM | TGI [4]: > 10 µM | TGI [5]: > 10 µM | TGI [6]: > 10 µM | TGI [8]: > 10 µM | TGI [9]: > 10 µM | TGI [10]: > 10 µM | TGI [11]: > 10 µM | TGI [12]: > 10 µM | TGI [13]: > 10 µM | TGI [14]: > 10 µM | TGI [20]: > 10 µM | TGI [16]: > 10 µM | TGI [17]: > 10 µM | TGI [18]: > 10 µM | TGI [19]: > 10 µM

COc1ccc(OC)c(-c2nc3n(c2/C=C2/C(=O)Nc4ccccc42)CCS3)c1
TGI [1]: 92.3 µM | TGI [2]: > 100 µM | TGI [3]: > 100 µM | TGI [4]: > 100 µM | TGI [5]: > 100 µM | TGI [6]: 78.2 µM | TGI [7]: > 100 µM | TGI [8]: > 100 µM | TGI [9]: > 100 µM | TGI [10]: > 100 µM | TGI [11]: > 100 µM | TGI [12]: > 100 µM | TGI [13]: > 100 µM | TGI [14]: 83 µM | TGI [20]: > 100 µM | TGI [15]: > 100 µM | TGI [17]: > 100 µM | TGI [18]: 94.4 µM | TGI [19]: > 100 µM

CC1(C)CC(C2=NCCO2)CC(C)(C)N1
TGI [1]: > 100 µM | TGI [2]: > 100 µM | TGI [3]: > 100 µM | TGI [4]: > 100 µM | TGI [5]: > 100 µM | TGI [6]: > 100 µM | TGI [7]: > 100 µM | TGI [10]: > 100 µM | TGI [11]: > 100 µM | TGI [12]: > 100 µM | TGI [14]: > 100 µM | TGI [15]: > 100 µM | TGI [17]: > 100 µM | TGI [18]: > 100 µM | TGI [19]: > 100 µM
